How the values were obtained:
[1] = tested on: OVA-sensitized BALB/c mice; assay: OVA-specific IgE levels in serum (sandwich ELISA) in mouse model of allergic asthma; type: in vivo, mouse (BALB/c)
Procedure: (§1) Animals. Animal care and use were performed in accordance with the guidelines of the Dutch Committee of Animal Experiments. Specific pathogen-free male BALB/c mice (5 to 6 weeks old) were purchased from Charles River (Maastricht, The Netherlands) and housed in macrolon cages in a laminar flow cabinet and provided with food and water ad libitum.
(§2) Sensitization, treatment and challenge. Mice (6 to 8 weeks old) were sensitized intraperitoneally (i.p.) on days 0 and 7 with 10 μg ovalbumin (OVA, grade V, Sigma-Aldrich) in 0.1 ml alum (Pierce, Rockford, Ill.). Two weeks after the last sensitization, the mice were divided into six groups. The sham-immunotherapy and the OVA-immunotherapy groups were treated with three s.c. injections of, respectively, 0.2 ml pyrogen-free saline (B. Braun, Melsungen, Germany) or 1 mg OVA in 0.2 ml pyrogen-free saline on alternate days. In three groups, OVA-immunotherapy was co-injected with 0.1 μg, 0.03 μg or 0.01 μg 1α,25-dihydroxyvitamin D3 (1α,25(OH)2 VitD3), a selective inhibitor of NF-κb. One group was treated with sham-immunotherapy and combined with co-injection of 0.1 μg 1α,25(OH)2 VitD3. Ten days after treatment, mice were exposed to three OVA inhalation challenges (10 mg/ml in saline) for 20 minutes every third day.
Determination of OVA-specific IgE levels in serum. From each mouse, serum was obtained after treatment but before OVA challenge (pre-measurement) by a small incision in the tail vein. After measurement of airway responsiveness in vivo, mice were sacrificed by i.p. injection of 1 ml 10% urethane in saline and were bled by cardiac puncture. […] Serum levels of OVA-specific IgE were measured by sandwich ELISA as described previously (Deurloo et al., 2001).
Statistical analysis. All data are expressed as mean±standard error of mean (SEM). The airway dose-response curves to methacholine were statistically analyzed by a general linear model of repeated measurements followed by post-hoc comparison between groups. […] All other data were analyzed using a Student's t test (2-tailed, homosedastic). […]

[2] = tested on: OVA-sensitized BALB/c mice; assay: Airway responsiveness to methacholine in vivo (whole-body plethysmography, Penh) in mouse model of allergic asthma; design: species or system mouse (BALB/c)
Procedure: as §1
as §2, with “One group was treated with sham-immunotherapy and combined with co-injection of 0.1 μg 1α,25(OH)2 VitD3. Ten days after treatment, mice were exposed to three OVA inhalation challenges (10 mg/ml in saline) for 20 minutes every third day.” left out
Measurement of airway responsiveness in vivo. Airway responsiveness to methacholine was measured after treatment but before OVA challenge (pre-measurement) and 24 hours after the last OVA challenge. Airway responsiveness was measured in conscious, unrestrained mice using barometric whole-body plethysmography by recording respiratory pressure curves (Buxco, EMKA Technologies, Paris, France) in response to inhaled methacholine (acetyl-β-methylcholine chloride, Sigma-Aldrich). […] Briefly, mice were placed in a whole-body chamber and basal readings were determined for three minutes. Aerosolized saline, followed by doubling concentrations of methacholine (ranging from 3.13-25 mg/ml in saline), were nebulized for three minutes, and readings were determined for three minutes after each nebulization.
Statistical analysis. All data are expressed as mean±standard error of mean (SEM). The airway dose-response curves to methacholine were statistically analyzed by a general linear model of repeated measurements followed by post-hoc comparison between groups. […]

[3] = tested on: OVA-sensitized BALB/c mice; assay: Cellular composition of bronchoalveolar lavage fluid (eosinophil number) in mouse model of allergic asthma; type: in vivo, mouse (BALB/c)
Procedure: as §1, §2
In a second series of experiments, OVA-immunotherapy, as described above, was carried out using a sub-optimal amount of 100 μg OVA in saline for OVA-immunotherapy. OVA-immunotherapy was either given alone or in combination with 0.01 μg 1α,25(OH)2 VitD3. Sham-immunotherapy alone or in combination with 0.01 μg 1α,25(OH)2 VitD3 served as control groups.
Analysis of the cellular composition of the bronchoalveolar lavage fluid. Bronchoalveolar lavage (BAL) was performed immediately after bleeding of the mice by lavage of the airways through a tracheal cannule five times with 1 ml saline (37° C.). Cells in the BALF were centrifuged and resuspended in cold PBS. The total number of cells in the BAL was determined using a Bürker-Türk counting chamber (Karl Hecht Assistant KG, Sondheim/Röhm, Germany). For differential BAL cell counts, cytospin preparations were made (15×g, five minutes, 4° C., Kendro Heraues Instruments, Asheville, N.C.). Next, cells were fixed and stained with Diff-Quick (Dade A. G., Düdingen, Switzerland). Per cytospin, 200 cells were counted and differentiated into mononuclear cells, eosinophils, and neutrophils by standard morphology and staining characteristics.
Statistical analysis. All data are expressed as mean±standard error of mean (SEM). The airway dose-response curves to methacholine were statistically analyzed by a general linear model of repeated measurements followed by post-hoc comparison between groups. Data were log transformed before analysis to equalize variances in all groups. All other data were analyzed using a Student's t test (2-tailed, homosedastic). Results were considered statistically significant at the p<0.05 level.

[4] = co-injection of 0.01 μg with OVA-immunotherapy (1 mg OVA), compared to OVA-immunotherapy alone

| Compound | Serum levels of OVA-specific IgE after OVA inhalation challenge [1, 4] | Serum levels of OVA-specific IgE after OVA inhalation challenge ([1]; co-injection of 0.1 μg with sham-immunotherapy, compared to sham-immunotherapy alone) | AHR to methacholine after OVA inhalation challenge ([2]; co-injection of 0.1 μg with sham-immunotherapy (saline)) | AHR to methacholine after OVA inhalation challenge ([2]; co-injection s.c. of 0.1, 0.03 or 0.01 μg (all doses used) with OVA-immunotherapy (1 mg OVA), compared to OVA-IT alone, P<0.05) | Number of BALF eosinophils after OVA inhalation challenge [3, 4] | Number of BALF eosinophils after OVA inhalation challenge ([3]; first series, co-injection of 0.1 μg with sham-immunotherapy) | Number of BALF eosinophils after OVA inhalation challenge ([3]; second series, co-injection of 0.01 μg with sham-immunotherapy) | Number of BALF eosinophils after OVA inhalation challenge ([3]; second series, co-injection of 0.01 μg with sub-optimal OVA-immunotherapy (100 μg OVA), compared to OVA-immunotherapy alone) | Serum levels of OVA-specific IgE after OVA inhalation challenge ([1]; OVA-immunotherapy alone (1 mg OVA), compared to sham-treated OVA-challenged mice) | AHR to methacholine after OVA inhalation challenge ([2]; OVA-immunotherapy alone (3 s.c. injections of 1 mg OVA), compared to sham-treated mice, P<0.05) | Number of BALF eosinophils after OVA inhalation challenge ([3]; OVA-immunotherapy alone (1 mg OVA), compared to sham-treated mice) | Number of BALF eosinophils after OVA inhalation challenge ([3]; second series, sub-optimal OVA-immunotherapy alone (100 μg OVA), compared to sham-treated mice) |
| --- | --- | --- | --- | --- | --- | --- | --- | --- | --- | --- | --- | --- |
| C=C1/C(=C\C=C2/CCC[C@]3(C)[C@@H]([C@H](C)CCCC(C)(C)O)CC[C@@H]23)C[C@@H](O)C[C@@H]1O [1α,25(OH)2 VitD3, 1α,25-dihydroxyvitamin D3] | significantly increased the reduction of serum IgE levels | did not affect serum IgE levels | did not affect AHR | significantly potentiated the reduction of AHR to methacholine | significantly increased the reduction of BALF eosinophil numbers | did not significantly affect BAL eosinophil number | did not significantly affect BAL eosinophil number | significantly increased the reduction of BALF eosinophil numbers |  |  |  |  |
| OVA-immunotherapy: three s.c. injections of 1 mg (or sub-optimal 100 μg) ovalbumin (OVA, grade V) in pyrogen-free saline on alternate days |  |  |  |  |  |  |  |  | significantly reduced | partially reduced | significantly reduced | significantly reduced |
